From ChEMBL document CHEMBL4627246, “Pyroglutamide-Based P2X7 Receptor Antagonists Targeting Inflammatory Bowel Disease” (J Med Chem, 2020)

Tests used:
Format in all cases: cell-based
NCI-H226 = test: Cytotoxicity against human NCI-H226 cells assessed as effect on cell growth at 10 uM incubated for 48 hrs by sulforhodamine B assay; settings: nci-h226, 48 h
EKVX = test: Cytotoxicity against human EKVX cells assessed as effect on cell growth at 10 uM incubated for 48 hrs by sulforhodamine B assay
M14 = test: Cytotoxicity against human M14 cells assessed as effect on cell growth at 10 uM incubated for 48 hrs by sulforhodamine B assay; settings: m14, 48 h
SF-268 = test: Cytotoxicity against human SF268 cells assessed as effect on cell growth at 10 uM incubated for 48 hrs by sulforhodamine B assay; settings: sf-268, 48 h
SK-MEL-5 = test: Cytotoxicity against human SK-MEL-5 cells assessed as effect on cell growth at 10 uM incubated for 48 hrs by sulforhodamine B assay; settings: sk-mel-5, 48 h
MCF7 = test: Cytotoxicity against human MCF7 cells assessed as effect on cell growth at 10 uM incubated for 48 hrs by sulforhodamine B assay; settings: mcf7, 48 h
NCI-H322M = test: Cytotoxicity against human NCI-H322M cells assessed as effect on cell growth at 10 uM incubated for 48 hrs by sulforhodamine B assay
MDA-MB-468 = test: Cytotoxicity against human MDA-MB-468 cells assessed as effect on cell growth at 10 uM incubated for 48 hrs by sulforhodamine B assay; settings: mda-mb-468, 48 h
OVCAR-5 = test: Cytotoxicity against human OVCAR5 cells assessed as effect on cell growth at 10 uM incubated for 48 hrs by sulforhodamine B assay; settings: ovcar-5, 48 h
DU-145 = test: Cytotoxicity against human DU145 cells assessed as effect on cell growth at 10 uM incubated for 48 hrs by sulforhodamine B assay; settings: du-145, 48 h
HL-60(TB) = test: Cytotoxicity against human HL-60(TB) cells assessed as effect on cell growth at 10 uM incubated for 48 hrs by sulforhodamine B assay
UACC-62 = test: Cytotoxicity against human UACC62 cells assessed as effect on cell growth at 10 uM incubated for 48 hrs by sulforhodamine B assay; settings: uacc-62, 48 h
MDA-MB-231 = test: Cytotoxicity against human MDA-MB-231 cells assessed as effect on cell growth at 10 uM incubated for 48 hrs by sulforhodamine B assay; settings: mda-mb-231, 48 h
786-0 = test: Cytotoxicity against human 786-0 cells assessed as effect on cell growth at 10 uM incubated for 48 hrs by sulforhodamine B assay; settings: 786-0, 48 h
PC-3 = test: Cytotoxicity against human PC3 cells assessed as effect on cell growth at 10 uM incubated for 48 hrs by sulforhodamine B assay; settings: pc-3, 48 h
Malme-3M = test: Cytotoxicity against human MALME-3M cells assessed as effect on cell growth at 10 uM incubated for 48 hrs by sulforhodamine B assay
HCT-116 = test: Cytotoxicity against human HCT116 cells assessed as effect on cell growth at 10 uM incubated for 48 hrs by sulforhodamine B assay; settings: hct-116, 48 h
HOP-92 = test: Cytotoxicity against human HOP92 cells assessed as effect on cell growth at 10 uM incubated for 48 hrs by sulforhodamine B assay; settings: hop-92, 48 h
HCT-15 = test: Cytotoxicity against human HCT15 cells assessed as effect on cell growth at 10 uM incubated for 48 hrs by sulforhodamine B assay; settings: hct-15, 48 h
U-251 = test: Cytotoxicity against human U251 cells assessed as effect on cell growth at 10 uM incubated for 48 hrs by sulforhodamine B assay; settings: u-251, 48 h

Measured: Activity

O=C(NCc1ccc(Cl)cc1Cl)[C@@H]1CCC(=O)N1c1nccs1
Non-Toxic: NCI-H226 | EKVX | M14 | SF-268 | SK-MEL-5 | MCF7 | NCI-H322M | MDA-MB-468 | OVCAR-5 | DU-145 | HL-60(TB) | UACC-62 | MDA-MB-231 | 786-0 | PC-3 | Malme-3M | HCT-116 | HOP-92 | HCT-15 | U-251

COc1ccccc1CN1C(=O)[C@@H]2C/C(=C\N(C)C)C(=O)N2C1N(C)C (stereo not given in full)
Non-Toxic: NCI-H226 | EKVX | M14 | SF-268 | SK-MEL-5 | MCF7 | NCI-H322M | MDA-MB-468 | OVCAR-5 | DU-145 | HL-60(TB) | UACC-62 | MDA-MB-231 | 786-0 | PC-3 | Malme-3M | HCT-116 | HOP-92 | HCT-15 | U-251

O=C1N[C@H](C(=O)NCc2ccc(Cl)cc2Cl)C/C1=C/NCc1ccc(Cl)cc1Cl
Non-Toxic: NCI-H226 | EKVX | M14 | SF-268 | SK-MEL-5 | MCF7 | NCI-H322M | MDA-MB-468 | OVCAR-5 | DU-145 | HL-60(TB) | UACC-62 | MDA-MB-231 | 786-0 | PC-3 | Malme-3M | HCT-116 | HOP-92 | HCT-15 | U-251

CN(C)/C=C1\C[C@H]2C(=O)N(/C(=C/N(C)C)c3ccncc3)C(N(C)C)N2C1=O (stereo not given in full)
Non-Toxic: NCI-H226 | EKVX | M14 | SF-268 | SK-MEL-5 | MCF7 | NCI-H322M | MDA-MB-468 | OVCAR-5 | DU-145 | HL-60(TB) | UACC-62 | MDA-MB-231 | 786-0 | PC-3 | Malme-3M | HCT-116 | HOP-92 | HCT-15 | U-251

O=C(NCc1ccc(Cl)cc1Cl)[C@@H]1CCC(=O)N1C(c1ccc(Cl)cc1)c1ccc(Cl)cc1
Non-Toxic: NCI-H226 | EKVX | M14 | SF-268 | SK-MEL-5 | MCF7 | NCI-H322M | MDA-MB-468 | OVCAR-5 | DU-145 | HL-60(TB) | UACC-62 | MDA-MB-231 | 786-0 | PC-3 | Malme-3M | HCT-116 | HOP-92 | HCT-15 | U-251

CN(C)/C=C1\C[C@H]2C(=O)N(Cc3ccccc3Cl)C(N(C)C)N2C1=O (stereo not given in full)
Non-Toxic: NCI-H226 | EKVX | M14 | SF-268 | SK-MEL-5 | MCF7 | NCI-H322M | MDA-MB-468 | OVCAR-5 | DU-145 | HL-60(TB) | UACC-62 | MDA-MB-231 | 786-0 | PC-3 | Malme-3M | HCT-116 | HOP-92 | HCT-15 | U-251

O=C(NCc1ccc(Cl)cc1Cl)[C@@H]1CCC(=O)N1c1ccc(Cl)cc1Cl
Non-Toxic: NCI-H226 | EKVX | M14 | SF-268 | SK-MEL-5 | MCF7 | NCI-H322M | MDA-MB-468 | OVCAR-5 | DU-145 | HL-60(TB) | UACC-62 | MDA-MB-231 | 786-0 | PC-3 | Malme-3M | HCT-116 | HOP-92 | HCT-15 | U-251

O=C1N[C@H](C(=O)NCc2ccc(Cl)cc2Cl)C/C1=N\O (stereo in doubt)
Non-Toxic: NCI-H226 | EKVX | M14 | SF-268 | SK-MEL-5 | MCF7 | NCI-H322M | MDA-MB-468 | OVCAR-5 | DU-145 | HL-60(TB) | UACC-62 | MDA-MB-231 | 786-0 | PC-3 | Malme-3M | HCT-116 | HOP-92 | HCT-15 | U-251
